Reference: ChEMBL document CHEMBL3044672, “N9- and N7-(Chloromethyl Phenymethyl)Chloropurine Derivatives from , '-Dichloroxylenes: Synthesis and Anticancer Activity” (2005)

Columns and labels:
Type in all cases: functional
MDA-MB-231 = assay: Cytotoxicity against Homo sapiens (human) MDA-MB-231 cells after 48 hr by sulforhodamine B assay; conditions: MDA-MB-231, 48 h
NCI-H522 = assay: Cytotoxicity against Homo sapiens (human) NCI-H522 cells after 48 hr by sulforhodamine B assay; conditions: NCI-H522, 48 h; for CC50: read-out: LC50 (the source's name)
CCRF-CEM = assay: Cytotoxicity against Homo sapiens (human) CCRF-CEM cells after 48 hr by sulforhodamine B assay; conditions: for CC50: read-out: LC50 (the source's name)
NCI-H322M = assay: Cytotoxicity against Homo sapiens (human) NCI-H322M cells after 48 hr by sulforhodamine B assay; conditions: for CC50: read-out: LC50 (the source's name)
CAKI-1 = assay: Cytotoxicity against Homo sapiens (human) Caki1 cells after 48 hr by sulforhodamine B assay; conditions: CAKI-1, 48 h; for CC50: read-out: LC50 (the source's name)
RXF 393 = assay: Cytotoxicity against Homo sapiens (human) RXF393 cells after 48 hr by sulforhodamine B assay; conditions: RXF 393, 48 h; for CC50: read-out: LC50 (the source's name)
SF-268 [1] = assay: Cytotoxicity against Homo sapiens (human) SF268 cells assessed as cell growth at 10^-4 M after 48 hr by […] assay; conditions: SF-268, 48 h, read-out: Activity
ACHN = assay: Cytotoxicity against Homo sapiens (human) ACHN cells after 48 hr by sulforhodamine B assay; conditions: for CC50: read-out: LC50 (the source's name)
COLO 205 = assay: Cytotoxicity against Homo sapiens (human) COLO205 cells after 48 hr by sulforhodamine B assay; conditions: COLO 205, 48 h; for CC50: read-out: LC50 (the source's name)
786-0 = assay: Cytotoxicity against Homo sapiens (human) 786-0 cells after 48 hr by sulforhodamine B assay; conditions: 786-0, 48 h
OVCAR-3 = assay: Cytotoxicity against Homo sapiens (human) OVCAR3 cells after 48 hr by sulforhodamine B assay; conditions: OVCAR-3, 48 h
SK-OV-3 = assay: Cytotoxicity against Homo sapiens (human) SKOV3 cells after 48 hr by sulforhodamine B assay; conditions: SK-OV-3, 48 h
HCT-116 = assay: Cytotoxicity against Homo sapiens (human) HCT116 cells after 48 hr by sulforhodamine B assay; conditions: HCT-116, 48 h; for CC50: read-out: LC50 (the source's name)
SK-MEL-2 = assay: Cytotoxicity against Homo sapiens (human) SK-MEL-2 cells after 48 hr by sulforhodamine B assay; conditions: SK-MEL-2, 48 h
EKVX = assay: Cytotoxicity against Homo sapiens (human) EKVX cells after 48 hr by sulforhodamine B assay; conditions: for CC50: read-out: LC50 (the source's name)
SNB-75 = assay: Cytotoxicity against Homo sapiens (human) SNB75 cells after 48 hr by sulforhodamine B assay; conditions: SNB-75, 48 h; for CC50: read-out: LC50 (the source's name)
OVCAR-5 = assay: Cytotoxicity against Homo sapiens (human) OVCAR5 cells after 48 hr by sulforhodamine B assay; conditions: OVCAR-5, 48 h; for CC50: read-out: LC50 (the source's name)
SF-539 = assay: Cytotoxicity against Homo sapiens (human) SF539 cells after 48 hr by sulforhodamine B assay; conditions: SF-539, 48 h
HOP-62 = assay: Cytotoxicity against Homo sapiens (human) HOP62 cells after 48 hr by sulforhodamine B assay; conditions: HOP-62, 48 h; for CC50: read-out: LC50 (the source's name)
OVCAR-8 = assay: Cytotoxicity against Homo sapiens (human) OVCAR8 cells after 48 hr by sulforhodamine B assay; conditions: OVCAR-8, 48 h
UACC-62 = assay: Cytotoxicity against Homo sapiens (human) UACC62 cells after 48 hr by sulforhodamine B assay; conditions: UACC-62, 48 h
SNB-19 = assay: Cytotoxicity against Homo sapiens (human) SNB19 cells after 48 hr by sulforhodamine B assay; conditions: SNB-19, 48 h
SW-620 = assay: Cytotoxicity against Homo sapiens (human) SW620 cells after 48 hr by sulforhodamine B assay; conditions: SW-620, 48 h; for CC50: read-out: LC50 (the source's name)
SF-295 = assay: Cytotoxicity against Homo sapiens (human) SF295 cells after 48 hr by sulforhodamine B assay; conditions: SF-295, 48 h; for CC50: read-out: LC50 (the source's name)
SF-268 [2] = assay: Cytotoxicity against Homo sapiens (human) SF268 cells after 48 hr by sulforhodamine B assay; conditions: SF-268, 48 h; for CC50: read-out: LC50 (the source's name)
MOLT-4 = assay: Cytotoxicity against Homo sapiens (human) MOLT4 cells after 48 hr by sulforhodamine B assay; conditions: MOLT-4, 48 h; for CC50: read-out: LC50 (the source's name)
BT-549 = assay: Cytotoxicity against Homo sapiens (human) BT549 cells after 48 hr by sulforhodamine B assay; conditions: BT-549, 48 h

ClCc1ccc(Cn2cnc3c(Cl)nc(Cl)nc32)cc1
GI50 (MDA-MB-231): 1.82 µM | LC50 (MDA-MB-231): 7.24 µM | TGI (MDA-MB-231): 3.63 µM | GI50 (NCI-H522): 22.4 µM | TGI (NCI-H522): 46.8 µM | CC50 (NCI-H522): 97.7 µM | GI50 (CCRF-CEM): 1.95 µM | TGI (CCRF-CEM): 4.57 µM | CC50 (CCRF-CEM): 14.1 µM | GI50 (NCI-H322M): 12.6 µM | TGI (NCI-H322M): 25.1 µM | CC50 (NCI-H322M): 50.1 µM | GI50 (CAKI-1): 9.12 µM | TGI (CAKI-1): 21.4 µM | CC50 (CAKI-1): 46.8 µM | GI50 (RXF 393): 20.9 µM | TGI (RXF 393): 41.7 µM | CC50 (RXF 393): 83.2 µM | growth at 100 µM (SF-268 [1]): 0% | GI50 (ACHN): 2.34 µM | TGI (ACHN): 5.25 µM | CC50 (ACHN): 14.8 µM | GI50 (COLO 205): 3.47 µM | TGI (COLO 205): > 100 µM | CC50 (COLO 205): > 100 µM | GI50 (786-0): 14.1 µM | LC50 (786-0): 61.7 µM | TGI (786-0): 29.5 µM | GI50 (OVCAR-3): 2 µM | LC50 (OVCAR-3): 9.55 µM | TGI (OVCAR-3): 4.37 µM | GI50 (SK-OV-3): 13.5 µM | LC50 (SK-OV-3): 66.1 µM | TGI (SK-OV-3): 29.5 µM | GI50 (HCT-116): 1.7 µM | TGI (HCT-116): 3.63 µM | CC50 (HCT-116): 7.59 µM | GI50 (SK-MEL-2): 19.9 µM | LC50 (concentration killing 50% of cells) (SK-MEL-2): 95.5 µM | TGI (SK-MEL-2): 43.6 µM | GI50 (EKVX): 17.4 µM | TGI (EKVX): 31.6 µM | CC50 (EKVX): 58.9 µM | GI50 (SNB-75): 3.16 µM | TGI (SNB-75): 9.33 µM | CC50 (SNB-75): 45.7 µM | GI50 (OVCAR-5): 18.2 µM | TGI (OVCAR-5): 34.7 µM | CC50 (OVCAR-5): 66.1 µM | GI50 (SF-539): 17 µM | LC50 (concentration killing 50% of cells) (SF-539): 56.2 µM | TGI (SF-539): 30.9 µM | GI50 (HOP-62): 2.19 µM | TGI (HOP-62): 5.13 µM | CC50 (HOP-62): 19.5 µM | GI50 (OVCAR-8): 19.9 µM | LC50 (concentration killing 50% of cells) (OVCAR-8): 72.4 µM | TGI (OVCAR-8): 38 µM | GI50 (UACC-62): 2.04 µM | LC50 (concentration causing 50% net cell kill) (UACC-62): 9.33 µM | TGI (UACC-62): 4.37 µM | GI50 (SNB-19): 2.51 µM | LC50 (SNB-19): > 100 µM | TGI (SNB-19): 7.08 µM | GI50 (SW-620): 3.8 µM | TGI (SW-620): 17.4 µM | CC50 (SW-620): 56.2 µM | GI50 (SF-295): 7.24 µM | TGI (SF-295): 19.5 µM | CC50 (SF-295): 44.7 µM | GI50 (SF-268 [2]): 2.51 µM | TGI (SF-268 [2]): 5.37 µM | CC50 (SF-268 [2]): 42.7 µM | GI50 (MOLT-4): 10.5 µM | TGI (MOLT-4): 27.5 µM | CC50 (MOLT-4): 72.4 µM | GI50 (BT-549): 15.8 µM | LC50 (50% lethal concentration) (BT-549): 56.2 µM | TGI (BT-549): 29.5 µM

ClCc1cccc(Cn2cnc3ncnc(Cl)c32)c1
GI50 (MDA-MB-231): 1.73 µM | LC50 (MDA-MB-231): 6.76 µM | TGI (MDA-MB-231): 3.38 µM | GI50 (NCI-H522): 6.16 µM | TGI (NCI-H522): 24 µM | CC50 (NCI-H522): > 100 µM | GI50 (CCRF-CEM): 6.91 µM | TGI (CCRF-CEM): 22.4 µM | CC50 (CCRF-CEM): 60.2 µM | GI50 (NCI-H322M): 1.99 µM | TGI (NCI-H322M): 3.46 µM | CC50 (NCI-H322M): 8.54 µM | GI50 (CAKI-1): 2.13 µM | TGI (CAKI-1): 4.07 µM | CC50 (CAKI-1): > 100 µM | GI50 (RXF 393): 2.04 µM | TGI (RXF 393): 17.4 µM | CC50 (RXF 393): 47.9 µM | growth at 100 µM (SF-268 [1]): 0% | GI50 (ACHN): 1.86 µM | TGI (ACHN): 3.54 µM | CC50 (ACHN): 7.76 µM | GI50 (COLO 205): 2.63 µM | TGI (COLO 205): > 100 µM | CC50 (COLO 205): 6.3 µM | GI50 (786-0): 2.04 µM | LC50 (786-0): 70.8 µM | TGI (786-0): 4.07 µM | GI50 (OVCAR-3): 1.77 µM | LC50 (OVCAR-3): 43.6 µM | TGI (OVCAR-3): 3.23 µM | GI50 (SK-OV-3): 10.7 µM | LC50 (SK-OV-3): 8.12 µM | TGI (SK-OV-3): 25.7 µM | GI50 (HCT-116): 1.77 µM | TGI (HCT-116): 5.24 µM | CC50 (HCT-116): 9.54 µM | GI50 (SK-MEL-2): 5.75 µM | LC50 (concentration killing 50% of cells) (SK-MEL-2): 6.76 µM | TGI (SK-MEL-2): 22.9 µM | GI50 (EKVX): 13.8 µM | TGI (EKVX): 29.5 µM | CC50 (EKVX): 64.6 µM | GI50 (SNB-75): 1.86 µM | TGI (SNB-75): 3.54 µM | CC50 (SNB-75): 7.94 µM | GI50 (OVCAR-5): 6.76 µM | TGI (OVCAR-5): 19.9 µM | CC50 (OVCAR-5): > 100 µM | GI50 (SF-539): 19.9 µM | TGI (SF-539): 36.3 µM | GI50 (HOP-62): 2.18 µM | TGI (HOP-62): 3.98 µM | CC50 (HOP-62): 7.41 µM | GI50 (OVCAR-8): 3.09 µM | LC50 (concentration killing 50% of cells) (OVCAR-8): 60.2 µM | TGI (OVCAR-8): 14.8 µM | GI50 (UACC-62): 2.18 µM | LC50 (concentration causing 50% net cell kill) (UACC-62): 38.9 µM | TGI (UACC-62): 5.37 µM | LC50 (SNB-19): 6.76 µM | GI50 (SW-620): 15.1 µM | TGI (SW-620): 32.4 µM | CC50 (SW-620): 7.41 µM | GI50 (SF-295): 6.3 µM | TGI (SF-295): 19.1 µM | CC50 (SF-295): 64.6 µM | GI50 (SF-268 [2]): 1.65 µM | TGI (SF-268 [2]): 3.46 µM | CC50 (SF-268 [2]): 47.9 µM | GI50 (MOLT-4): 10.7 µM | TGI (MOLT-4): 29.5 µM | CC50 (MOLT-4): 81.3 µM | GI50 (BT-549): 13.2 µM | LC50 (50% lethal concentration) (BT-549): 63.1 µM | TGI (BT-549): 28.8 µM
